Tests used:
TRPV1 = details: read-out: IC50 (µM), channel inhibited TRPV1; cited from earlier work
TRPV3 = details: read-out: IC50 (µM), channel inhibited TRPV3; cited from earlier work
TRPA1 = target: T1, TRPA1 (Homo sapiens, UniProt O75762); details: read-out: IC50 (µM), channel inhibited TRPA1; cited from earlier work
T1 construct: host or cells: HEK 293T (transient transfection)

TRPV3 (WT) = test: in vitro; type: cell-based, human; details: human
IL-8 = test: ELISA, carvacrol-induced IL-8 release in NHEK; type: cell-based, human; details: 300 µM carvacrol alone, 24 h
Description: (§1) Constitutive activation of TRPV3 due to continuous stimulation or the presence of Olmsted mutations causes noticeable skin inflammation due to the increased secretion of pro-inflammatory cytokines from the keratinocytes. Besides, in atopic dermatitis (AD), cytokine release from keratinocytes contributes to the inflammatory environment, which drives many characteristic AD symptoms. Therefore, we determined the effect of TRPV3 activation on cytokine release instead of TRPV3 expression and evaluated whether alpha-mangostin suppressed TRPV3-mediated cytokine secretion in normal human keratinocytes. The levels of secreted cytokines (interleukin (IL)-6, IL-8, and tumor necrosis factor-alpha (TNF-α)) were measured using enzyme-linked Immunosorbent assay (ELISA) kits due to their high sensitivity and quantitation ability. The cells were induced with 300 µM carvacrol, with or without 1 µM alpha-mangostin, and 10 µM 74a.
(§2) Figure 5 Alpha-mangostin (α-MG) inhibited carvacrol-induced cytokine release in NHEK cells and rescued carvacrol-induced cell death. (A) Alpha-mangostin inhibited the carvacrol-induced release of IL-8 and IL-6 in NHEK. Cells were induced by 300 µM carvacrol with or without either 1 µM alpha-mangostin or 10 µM 74a for 24 h before the ELISA assay. (B) Alpha-mangostin reduced cell death caused by carvacrol in human keratinocytes. […]

IL-6 = test: ELISA, carvacrol-induced IL-6 release in NHEK; type: cell-based, human; details: 300 µM carvacrol alone, 24 h, not significant
Description: as §1, §2

TNF-α = test: ELISA, TNF-α release in NHEK; type: cell-based, human; details: 300 µM carvacrol alone, 24 h
Description: as §1, §2

TRPV2 = system: TRPV2; parameters: method as in PMID 28333079; details: read-out: IC50 (µM), channel inhibited TRPV2; cited from earlier work

T1 sequence (O75762 whole entry, species assumed): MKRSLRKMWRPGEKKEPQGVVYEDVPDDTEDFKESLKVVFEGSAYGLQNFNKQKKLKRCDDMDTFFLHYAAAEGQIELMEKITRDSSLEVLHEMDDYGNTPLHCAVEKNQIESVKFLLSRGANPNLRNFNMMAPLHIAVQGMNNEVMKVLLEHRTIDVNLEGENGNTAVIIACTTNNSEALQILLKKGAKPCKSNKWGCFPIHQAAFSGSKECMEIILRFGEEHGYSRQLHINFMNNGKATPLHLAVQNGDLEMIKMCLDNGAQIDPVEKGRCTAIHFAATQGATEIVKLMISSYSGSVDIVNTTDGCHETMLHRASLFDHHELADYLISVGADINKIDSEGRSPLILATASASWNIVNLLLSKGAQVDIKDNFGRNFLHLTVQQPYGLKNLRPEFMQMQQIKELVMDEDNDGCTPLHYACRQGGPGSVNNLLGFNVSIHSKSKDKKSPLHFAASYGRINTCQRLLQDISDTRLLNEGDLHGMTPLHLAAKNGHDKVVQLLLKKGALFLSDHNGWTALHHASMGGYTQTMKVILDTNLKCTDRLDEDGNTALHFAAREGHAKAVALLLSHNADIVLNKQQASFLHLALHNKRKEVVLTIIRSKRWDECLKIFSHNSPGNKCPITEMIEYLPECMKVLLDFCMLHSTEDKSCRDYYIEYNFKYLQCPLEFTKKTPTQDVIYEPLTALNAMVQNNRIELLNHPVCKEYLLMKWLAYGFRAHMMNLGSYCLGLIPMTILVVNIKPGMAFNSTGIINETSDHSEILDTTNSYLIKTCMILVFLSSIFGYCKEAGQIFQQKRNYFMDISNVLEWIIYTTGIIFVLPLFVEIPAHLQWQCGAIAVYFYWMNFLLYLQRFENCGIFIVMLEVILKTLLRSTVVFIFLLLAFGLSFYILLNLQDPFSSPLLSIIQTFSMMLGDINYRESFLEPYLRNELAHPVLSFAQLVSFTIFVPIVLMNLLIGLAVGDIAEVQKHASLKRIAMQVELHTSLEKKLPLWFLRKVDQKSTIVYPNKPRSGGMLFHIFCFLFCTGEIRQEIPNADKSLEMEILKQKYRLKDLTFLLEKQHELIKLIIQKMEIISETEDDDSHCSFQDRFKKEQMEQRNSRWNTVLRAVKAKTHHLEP

Molecule | IC50 (TRPV1) [µM] | IC50 (TRPV3) [µM] | other results
Pulchranin C | 183 ± 27 | > 200 | IC50 (TRPA1): > 200 µM
Pulchranin A | 27.5 ± 1.4 | 71.8 ± 9.4 | IC50 (TRPA1): 174 ± 7.4 µM
COc1c(O)cc(O)c2c(=O)c3cccc(O)c3n(C)c12 [Citrusinine II] | – | 12.4 ± 1.86 | –
Forsythoside B | – | 6.7 ± 0.7 | –
COc1ccc2ccc(=O)oc2c1CC=C(C)C [Coumarin osthole] | – | 37 ± 1.9 | –
C[C@@H]1O[C@@H](O[C@@H]2[C@@H](O)[C@H](OCCc3ccc(O)c(O)c3)O[C@H](CO)[C@H]2OC(=O)/C=C/c2ccc(O)c(O)c2)[C@H](O)[C@H](O)[C@H]1O [Verbascoside] | – | 14.1 ± 3.3 | –
Cc1ccc(C(C)C)cc1O [carvacrol, reference compound] | – | – | viability at 24 h, 300 µM (TRPV3 (WT)): 75.6%; Effect on IL-8 release (IL-8): significantly stimulated; Effect on IL-6 secretion (IL-6): slight increase; Effect on TNF-α levels (TNF-α): non-significant effect
CCC=CC1CCC2(CC3CCC4C(C(=O)OCCCCCCCCCCCCCCCC(=O)N(CCCN)CCCCN)C5(CCCC(C)O5)NC(=[N+]34)N2)O1 (stereo not shown) [Monanchomycalin B] | 6.02 ± 0.36 | 3.25 ± 0.6 | IC50 (TRPV2): 2.84 ± 1.01 µM
O=C(/C=C/c1ccc(O)c(O)c1)O[C@@H]1CC(O)(C(=O)O)C[C@@H](OC(=O)/C=C/c2ccc(O)c(O)c2)C1O (stereo partly shown) [Isochlorogenic acid A] | – | 2.7 ± 1.3 | –
O=C(C=Cc1ccc(O)c(O)c1)OC1CC(O)(C(=O)O)CC(O)C1OC(=O)C=Cc1ccc(O)c(O)c1 (stereo not shown) [Isochlorogenic acid B] | – | 0.9 ± 0.3 | –

Source: paper PMC10455244, “Alpha-Mangostin: A Potent Inhibitor of TRPV3 and Pro-Inflammatory Cytokine Secretion in Keratinocytes” (International Journal of Molecular Sciences, 2023)
